Data set [1] relates to HCV replicon cell line, AVA5 (sub-genomic CONI, genotype 1b). As to the kind of experiment: Primary HCV replicon cell assay, antiviral activity (intracellular HCV RNA, blot hybridization). It is filed as cell-based. To be noted: Hepatitis C virus, Ava5, 72 h, 3-day assay; for EC50: 2-fold depression of intracellular HCV RNA; for EC90: 10-fold depression of intracellular HCV RNA. The procedure: Antiviral activity of test compounds was assessed in a 3-day assay using the stably-expressing HCV replicon cell line, AVA5 (sub-genomic CONI, genotype 1b) [Korba, B. E. et al. Antiviral Res. 77, 56-63 (2008); Blight et al., Science 290, 1972-1974 (2000)] maintained as sub-confluent cultures on 96-well plates as previously described [Okuse et al., Antiviral Research 65, 23-34 (2005)]. Antiviral activity was determined by blot hybridization analysis of intracellular HCV RNA (normalized to the level of cellular B-actin RNA in each culture sample) and cytotoxicity was assessed by neutral red dye uptake after 3 days of treatment. Additional studies were performed using Huh7 cells containing another HCV replicon, H/FL-Neo, a genotype la full length construct [Blight et al., J. Virol. 77, 3181-3190 (2003)]. For studies involving human serum, standard culture medium (which contains 10% fetal bovine serum) and assay conditions were maintained.
EC50, EC90 and CC50 values (±standard deviations [S.D.]) were calculated by linear regression analysis using data combined from all treated cultures (Korba, B. E. et al. Antiviral Res. 77, 56-63 (2008)). […] Selectivity index (S.I.) was calculated as CC50/EC90 for HBV assays and CC50/EC50 for HCV assays.

Data set [2] can be described thus: Primary HCV replicon cell assay, cytotoxicity (neutral red dye uptake). It counts as cell-based. To be noted: human, AVA5 HCV replicon cells (sub-genomic CON1, genotype 1b), 3 days of treatment.
Protocol: Antiviral activity of test compounds was assessed in a 3-day assay using the stably-expressing HCV replicon cell line, AVA5 (sub-genomic CONI, genotype 1b) [Korba, B. E. et al. Antiviral Res. 77, 56-63 (2008); Blight et al., Science 290, 1972-1974 (2000)] maintained as sub-confluent cultures on 96-well plates as previously described [Okuse et al., Antiviral Research 65, 23-34 (2005)]. Antiviral activity was determined by blot hybridization analysis of intracellular HCV RNA (normalized to the level of cellular B-actin RNA in each culture sample) and cytotoxicity was assessed by neutral red dye uptake after 3 days of treatment. Additional studies were performed using Huh7 cells containing another HCV replicon, H/FL-Neo, a genotype la full length construct [Blight et al., J. Virol. […] For studies involving human serum, standard culture medium (which contains 10% fetal bovine serum) and assay conditions were maintained.
The subject of data set [3] is HBV virion in 2.2.15 cells. The experiment in a line: HBV antiviral assay in 2.2.15 cells, virion (VIR) HBV DNA. It is filed as cell-based. Particulars: Hepatitis B virus, HBV virion DNA, 2.2.15 cells, nine daily doses; for EC50: read-out: EC50 (VIR); for EC90: read-out: EC90 (VIR).
Protocol: (§1) HBV antiviral assays were conducted as previously described [Korba, B. E. et al. Antiviral Res. 77, 56-63 (2008);].
Data set [4] in a line: Cytotoxicity in 2.2.15 cells (neutral red dye uptake). It is filed as cell-based. To be noted: human, nine daily doses. The procedure: Briefly, confluent cultures of 2.2.15 cells were maintained on 96-well flat-bottomed tissue culture plates (confluence in this culture system is required for active, high levels of HBV replication equivalent to that observed in chronically-infected individuals. Cultures were treated with nine consecutive daily doses of the test compounds. HBV DNA levels were assessed by quantitative blot hybridization 24 hr. after the last treatment. Cytotoxicity was assessed by uptake of neutral red dye 24 hr. following the last treatment.

In data set [5] the test system is HBV replication intermediates in 2.2.15 cells. The experiment in a line: HBV antiviral assay in 2.2.15 cells, replication intermediates (RI) HBV DNA. It is filed as cell-based. Particulars: Hepatitis B virus, HBV replication intermediates, 2.2.15 cells, nine daily doses; for EC50: read-out: EC50 (RI); for EC90: read-out: EC90 (RI).
Protocol: as §1

Values joined by “and” are separate entries in the source; they are usually repeats but may differ in a detail not shown here. Equal entries are not always repeated.

For the compound `Cc1cccc(C(=O)Nc2ccc(F)cc2)c1O`, the melting point lay in the range of 144.8 to 145.8 °C.
`O=C(O)c1ccccc1C(=O)Nc1ccc(F)cc1` yielded a melting point of 167.3 °C.
Compound `O=C(Nc1cccc(Br)c1)c1ccccc1O` had a melting point of 183.5 °C.
On the same count and under the same terms, with `Cc1cccc(C(=O)Nc2cccc([N+](=O)[O-])c2)c1O` the figure was 217.5 °C; with `Cc1cccc(C(=O)Nc2ccccc2Cl)c1O`, 99.8 to 100.4 °C; with `Cc1cccc(C(=O)Nc2cccc(Br)c2)c1O`, 147.2 to 148.2 °C.
In turn, `Cc1cccc(C(=O)Nc2ccccc2F)c1O` returned a melting point of 74.2 to 83.4 °C.
As for `CC(=O)Oc1ccccc1C(=O)Nc1ccccc1S(C)(=O)=O`, the melting point lay in the range of 115 to 117 °C.
The same measure, in the same setting: with `CS(=O)(=O)c1ccccc1NC(=O)c1ccccc1O` the figure was 142 to 145 °C; with `CC(=O)Oc1ccccc1C(=O)Nc1cccc(S(C)(=O)=O)c1`, 51 to 53 °C.
`CS(=O)(=O)c1cccc(NC(=O)c2ccccc2O)c1` displayed a melting point of 210 to 212 °C.
Same read-out and setting: with `CC(=O)Oc1ccccc1C(=O)Nc1ccc(S(C)(=O)=O)cc1` the figure was 184 to 186 °C; with `CS(=O)(=O)c1ccc(NC(=O)c2ccccc2O)cc1`, 193 °C and 193 to 196 °C.
`O=C(Nc1cc(C(F)(F)F)cc(C(F)(F)F)c1)c1ccccc1O` registered a melting point of 196 to 198 °C.
Same read-out and setting: with `O=C(Nc1ccc([N+](=O)[O-])cc1)c1ccccc1O` the figure was 233 °C.
Compound `O=C(Nc1ccccc1Br)c1ccccc1O` [Compound 4, N-(2-bromophenyl)-2-hydroxybenzamide] showed a melting point of 165.5 °C. Moreover, in data set [1], the EC50 was 5800 nM and the EC90 was 20 µM. Moreover, the CC50 at 3 days in data set [2] was more than 100 µM.
The corresponding values for `O=C(Nc1cccc([N+](=O)[O-])c1)c1ccccc1O` [Compound 7, 2-hydroxy-N-(3-nitrophenyl)benzamide] are 222 °C, 1100 nM, 6.1 µM and 34 µM.
The corresponding values for `Cc1cccc(C(=O)Nc2cccc(F)c2)c1O` [Compound 9, N-(3-fluorophenyl)-2-hydroxy-3-methylbenzamide] are 143.8 to 144.8 °C, 1900 nM, 9 µM and 40 µM.
For `Cc1cccc(C(=O)Nc2cccc(Cl)c2)c1O` [Compound 14, N-(3-chlorophenyl)-2-hydroxy-3-methylbenzamide], in that order: 148.5 °C, 2800 nM, 7.8 µM and 35 µM.
Compound `O=C(O)c1ccccc1C(=O)Nc1ccccc1Cl` [Compound 15, 2-(2-chlorophenylcarbamoyl)benzoic acid] registered a melting point of 145.2 to 145.7 °C. In data set [1], this compound returned an EC50 of 2900 nM and an EC90 of 11 µM. In data set [2], this compound came in with a CC50 at 3 days of 78 µM.
For the compound `Cc1cccc(C(=O)Nc2ccc(Cl)cc2)c1O` [Compound 20, N-(4-chlorophenyl)-2-hydroxy-3-methylbenzamide], the melting point lay in the range of 159.6 to 161.6 °C. In data set [1], this compound showed a 50% effective concentration (EC50) of 6500 nM and an EC90 of 16 µM. The CC50 at 3 days in data set [2] is more than 100 µM.
The corresponding values for `O=C(Nc1ccccc1Cl)c1ccccc1O` [Compound 23, N-(2-chlorophenyl)-2-hydroxybenzamide] are 168.1 to 168.8 °C, 3800 nM, 21 µM and 72 µM.
The corresponding values for `CC(=O)Oc1ccccc1C(=O)Nc1cccc(F)c1` [Compound 24, 2-(3-fluorophenylcarbamoyl)phenyl acetate] are 88.5 to 89.7 °C, 2100 nM, 6.8 µM and more than 100 µM.
`O=C(Nc1cccc(C(F)(F)F)c1)c1ccccc1O` [Compound 27, 2-hydroxy-N-(3-(trifluoromethyl)phenyl)benzamide] registered a melting point of 188 to 190.6 °C. In data set [1], this compound came in with an EC50 of 3600 nM and an EC90 of 11 µM. Further, in data set [2], the CC50 at 3 days is more than 100 µM.
As for `CC(=O)Oc1ccccc1C(=O)Nc1ccc(Cl)cc1` [Compound 38, 2-(4-chlorophenylcarbamoyl)phenyl acetate], in data set [3], the EC50 stood at 3500 nM and the EC90 is 9.7 µM. For the same compound, the CC50 at 9 days in data set [4] was more than 100 µM.
Consider `CC(=O)Oc1ccccc1C(=O)Nc1ccc(Br)cc1` [Compound 39, 2-(4-bromophenylcarbamoyl)phenyl acetate], for which, in data set [3], the EC50 came out at 760 nM and the EC90 came to 3 µM. Further, in data set [5], the EC50 is 2100 nM and the EC90 amounted to 6.8 µM. Also, the 50% cytotoxic concentration (CC50) at 9 days in data set [4] was more than 100 µM.
With `CC(=O)Oc1ccccc1C(=O)Nc1ccc(I)cc1` [Compound 40, 2-(4-iodophenylcarbamoyl)phenyl acetate], in data set [3], the EC50 came out at 200 nM and the EC90 came out at 1.2 µM. Also, in data set [5], the EC50 came out at 730 nM and the EC90 is 3.3 µM. The CC50 at 9 days in data set [4] was more than 100 µM.
For `Cc1cc([N+](=O)[O-])c(Cl)cc1NC(=O)c1ccccc1O` [Compound 42, N-(5-chloro-2-methyl-4-nitrophenyl)-2-hydroxybenzamide], in that order: 230 nM, 0.71 µM, 680 nM, 2.1 µM and more than 100 µM.
For `O=C(Nc1ccc(OC(F)(F)C(F)F)cc1)c1ccccc1O` [Compound 49, 2-hydroxy-N-(4-(1,1,2,2-tetrafluoroethoxy)phenyl)benzamide], in data set [1], the EC50 turned out to be 313 nM and the 90% effect level (EC90) was put at 1.1 µM. The same compound showed a CC50 at 3 days in data set [2] of 3.9 µM.
With `O=C(Nc1ccc(C(F)(F)F)cc1)c1ccccc1O` [Compound 51, 2-hydroxy-N-(4-(trifluoromethyl)phenyl)benzamide], in data set [3], the EC50 stood at 5600 nM and the EC90 is 21 µM. This compound yielded a CC50 at 9 days in data set [4] of more than 100 µM.
Regarding `CC(=O)Oc1ccccc1C(=O)Nc1cc(C(F)(F)F)ccc1Cl` [Compound 52, 2-(2-chloro-5-(trifluoromethyl)phenylcarbamoyl)phenyl acetate], in data set [3], the concentration giving a half-maximal response (EC50) worked out at 2500 nM and the EC90 was found to be 9.1 µM. The compound also returned a CC50 at 9 days in data set [4] of 59 µM.
Regarding `CC(=O)Oc1ccccc1C(=O)Nc1ccc(Cl)c([N+](=O)[O-])c1` [Compound 53, 2-(4-chloro-3-nitrophenylcarbamoyl)phenyl acetate], in data set [3], the EC50 is 2000 nM and the 90% effect concentration (EC90) was 8.7 µM. The CC50 at 9 days in data set [4] amounted to 52 µM.
The corresponding values for `CC(=O)Oc1ccccc1C(=O)Nc1cc([N+](=O)[O-])ccc1Cl` [Compound 54, 2-(2-chloro-5-nitrophenylcarbamoyl)phenyl acetate] are 2100 nM, 8.5 µM and 65 µM.
For `CC(=O)Oc1ccccc1C(=O)Nc1ccc(F)c(F)c1` [Compound 55, 2-(3,4-difluorophenylcarbamoyl)phenyl acetate], in that order: 2200 nM, 8.8 µM and 48 µM.

Source of the values: patent publication US20120108592A1, “PHARMACEUTICAL COMPOSITIONS AND METHODS OF USE OF SALICYLANILIDES FOR TREATMENT OF HEPATITIS VIRUSES” (priority 2010, published 2012).
